Results from patent publication US10137185B2, “PAP peptide analogues” (THE NOTTINGHAM TRENT UNIVERSITY, priority 2014, dated 2018).

Legend:
HLA-A2 = details: WO 2005/090560; cited from earlier work
splenocytes [1] = assay: Peptide immunisation of C57Bl/6 mice, ex vivo IFNγ ELISPOT of splenocytes; assay type: in vivo; details: for number of spots generated by splenocytes from immunised animals: 100 μg 15-mer day 1, PAP-115-123 day 14, 1×10^6 splenocytes with 1 μg 9-mer peptide, 3 mice
Description: FIG. 9. Comparison of IFNγ responses induced by PAP-115-123 peptide and PAP-115-123 analogue peptide immunisation (A) and to varying PAP-115-123 peptide/analogue peptide concentrations (B), as determined using an ex vivo ELISPOT. C57Bl/6 mice in the PAP-115-123 peptide immunisation group were immunised with 100 μg of PAP-114-128 on day 1 and 75 μg of PAP-115-123 on day 14. C57Bl/6 mice in the PAP-115-123 analogue peptide immunisation group were immunised with 100 μg of PAP-114-128 analogue peptide on day 1 and 75 μg of PAP-115-123 on day 14. A week after the final immunisation, spleens were isolated for the ex vivo ELISPOT assay. For the assay, 1×10^6 splenocytes were co-cultured with 1 μg of PAP-115-123 peptide or PAP-115-123 analogue peptide. Splenocytes with no added peptide were used as control. Comparisons of means (±SEM) between groups (splenocytes pulsed with PAP-115-123 peptide or PAP-115-123 analogue peptide) are made with an unpaired t test. The experiment was performed with three mice per group.
The PAP-115-123 peptide which was obtained by altering the second amino acid of the sequence from alanine to […] was predicted to have a higher HLA-2 binding score by the syfpeithi database. The binding score of PAP-115-123 epitope (SAMTNLAAL) (SEQ ID NO. 13) to HLA-A2.1 was 24 and that of the analogue peptide (SLMTNLAAL) (SEQ ID NO. 8) was 30. The immunogenicity of PAP-115-123 epitope and its analogue epitope was assessed by immunising syngeneic C57Bl/6 mice with these peptides. C57Bl/6 mice were immunised with 100 μg of PAP-114-128 on day 1 and […] of PAP-115-123 on day 14 or 100 μg of PAP-114-128 analogue peptide on day 1 and […] of PAP-115-123 on day 14. A week after the final immunisation spleens were isolated for the ex vivo ELISPOT assay. For this, 1×10^6 splenocytes were co-cultured with 1 μg of PAP-115-123 peptide or PAP-115-123 analogue peptide. Splenocytes with no added peptide were used as control. A 2-fold higher IFNγ response by splenocytes from animals immunised with the PAP-114-128 analogue peptide was observed (FIG. 9A). The number of spots in generated by splenocytes from PAP-114-128 immunised animals was 280, whereas the number of spots generated by splenocytes from PAP-114-128 analogue immunised animals was 590. Comparisons of means (±SEM) between groups (splenocytes pulsed with PAP-114-128 peptide or PAP-114-128 analogue peptide) were performed using the unpaired t test, and there were 3 animals in each group. Peptide-specific IFNγ responses generated by splenocytes that had been pulsed with varying concentrations (10, 1, 0.1, 0.01, 0.001 and 0.0001 mg/ml) of PAP-15-123 epitope or analogue epitope were also evaluated.

TRAMP-C1 cells = assay: Ex vivo IFNγ ELISPOT of splenocytes of immunised mice co-cultured with TRAMP-C1 or MC38 cells; assay type: in vivo, C57Bl/6 mice
Description: FIG. 10. Comparison of IFNγ responses generated by splenocytes from mice that have been immunised with PAP-115-123 analogue peptide, and which have been co-cultured with TRAMP-C1 cells and MC38 cells, as determined using an ex vivo ELISPOT. C57Bl/6 mice were immunised with 100 μg of PAP-114-128 analogue peptide on day 1 and 75 μg of PAP-115-123 on day 14. Splenocytes were isolated for the ex vivo ELISPOT assay a week after the final immunisation. For the assay, 1×10^6 splenocytes were co-cultured with 1×10^5 TRAMP-C1 ‘stimulator’ cells. Control wells received 1×10^5 MC38 cells as stimulator cells. Comparisons of means (±SEM) between groups (splenocytes pulsed with TRAMP-C1 or MC38) are made using an unpaired t test. The experiment was performed with three mice per group.
To assess whether the T cells generated following PAP-114-128 analogue peptide immunisation could recognise naturally processed PAP-115-123 epitopes, the IFNγ response of splenocytes from the immunised mice that had been co-cultured with TRAMP-C1 cells (that naturally express PAP) was assessed using the ELISPOT. For this, 1×10^6 splenocytes were co-cultured with 1×10^5 TRAMP-C1 cells as stimulator cells. […] The number of spots generated by co-culture splenocytes with TRAMP-C1 cells was 650, whereas and number of spots obtained when using MC38 cells as stimulators was 100. The experiment was performed with three mice per group.

splenocytes [2] = assay: Peptide immunisation of HHDII/DRI mice, ex vivo IFNγ ELISPOT of splenocytes; assay type: in vivo
Description: FIG. 11. Comparison of IFNγ responses generated by splenocytes isolated from HHDII/DRI mice that have been immunised with PAP-114-128 peptide and PAP-114-128 analogue peptide, as determined using an ex vivo ELISPOT. HHDII/DRI mice were immunised with 100 μg of PAP-114-128 on day 1 and 75 μg of PAP-115-123 on day 14, or 100 μg of PAP-114-128 analogue peptide on day 1 and 75 μg of PAP-115-123 on day 14. Splenocytes were isolated for the ex vivo ELISPOT assay a week after the final immunisation. For the assay, 1×10^6 splenocytes were co-cultured with 1 μg of class I PAP-115-123 peptide or PAP-115-123 analogue peptide or 10 μg of class II PAP-114-128 peptide or PAP-114-128 analogue peptide. Splenocytes with no added peptide were used as control. Comparisons of means (±SEM) between groups (splenocytes pulsed with class I/class II peptide or class I/class II analogue peptide) are made using an unpaired t test. The experiment was performed with three mice per group.
The immunogenic efficiencies of the PAP-115-123 epitope peptide and the PAP-115-123 analogue peptides were further compared using transgenic HHDII/DRI mice. For this, HHDII/DRI mice in the PAP-114-128 peptide immunisation group were immunised with 100 μg of PAP-114-128 on day 1 and 75 μg of PAP-115-123 on day 14. HHDII/DRI mice in the PAP-114-128 analogue peptide immunisation group was immunised with 100 μg of PAP-114-128 analogue peptide on day 1 and 75 μg of PAP-115-123 on day 14. A week after the final immunisation spleens were isolated for the ex vivo ELISPOT assay. For the assay, 1×10^6 splenocytes were co-cultured with 1 μg of class I PAP-115-123 peptide or PAP-115-123 analogue peptide or 10 μg of class II PAP-114-128 peptide or PAP-114-128 analogue peptide. Splenocytes with no added peptide were used as control. […] The experiment was performed with three mice per group.

[3] = system: PBMCs from HLA-A2 positive patients with prostate cancer and individuals with benign disease; assay: IFNγ ELISPOT of PBMCs from prostate cancer patients and individuals with benign disease after peptide re-stimulation; assay type: cell-based, human; details: for peptide-specific IFNγ response in samples from individuals with benign disease: 10 benign individuals
Description: FIG. 3. IFNγ response of peripheral blood mononuclear cells (PBMCs) isolated from patients with prostate cancer and individuals with benign disease after re-stimulation with PAP-115-123 epitope using an ELISPOT assay. Cryopreserved PBMCs from ten HLA-A2 positive prostate cancer patients and ten benign candidates were compared. The PBMCs were cultured in vitro with 5 μg of PAP-114-128 epitope for 7 days. The cells were then washed and rested overnight and 4×10^4 cells were added to each well of an ELISPOT plate. PAP-115-123 epitope peptide (1 μg) was added per well and cells cultured for 48 hours. The plates were then washed according to the manufacturer's protocol. PBMCs with no added peptide were used as control. Comparisons of means (±SEM) between groups (cells pulsed with PAP-115-123 or no peptide) are made using an unpaired t test.
FIG. 12. IFNγ responses generated by PBMCs isolated from 10 patients with prostate cancer and 10 individuals with benign disease after re-stimulation with the PAP-115-123 analogue epitope peptide, as determined using an ELISPOT assay. PBMCs were cultured in vitro with 5 μg of PAP-114-128 analogue epitope for 7 days. The cells were then washed and rested overnight, at which time and 4×10^4 cells were added to each well of an ELISPOT plate. PAP-115-123 analogue epitope peptide (1 μg) was added to each well and the cells were cultured for 48 hours. The plates were then washed according to the manufacturer's protocol. PBMCs cultured with no added peptide were used as the control. Comparisons of means (±SEM) between groups (PBMCs pulsed with PAP-115-123 analogue or no peptide) are made using an unpaired t test.
To determine the presence of circulating T cells specific for PAP-115-123 in humans, PBMCs from HLA-A2 positive patients with prostate cancer and individuals with benign disease were used. Cryopreserved PBMCs were thawed, washed and restimulated for 7 days with […] epitope peptide. The cells were then washed and rested overnight, at which time 4×10^4 cells were added to each well of an ELISPOT plate. PAP-115-123 epitope peptide (1 μg) was added to each well and the cells cultured for 48 hours. The plates were developed according to the manufacturer's instructions. PBMCs cultured with no peptide were used as controls. […] The number of IFNγ spots generated by PBMCs from one of the patients was as high as 220 (vs 60 spots for the control). The number of spots generated by PBMCs for the other 6 patients with prostate cancer ranged between 50 and 100 (vs 10-20 in controls). Although some of the PBMCs from individuals with benign disease generated 50-100 spots, the number of spots in the control wells was also high.
To determine the presence of circulating T cells specific for PAP-115-123 analogue peptide in humans, PBMCs from HLA-A2 positive patients with prostate cancer and individuals with benign disease were used. Cryopreserved PBMCs were thawed, washed and restimulated for 7 days with […] analogue epitope. The cells were then washed and rested overnight, at which time 4×10^4 cells were added to each well of an ELISPOT plate. 1 μg of PAP-115-123 analogue epitope was added to each well and cells were cultured for 48 hours. The plates were developed as per the manufacturer's instructions. PBMCs cultured with no peptide were used as control. […] The number of IFNγ spots in one of the patients was as high as 180 spots compared to control (54 spots). Similar response was also obtained when PBMCs were co-cultured with PAP-115-123 epitope (FIG. 3). The number of spots generated by PBMCs from the 6 patients with prostate cancer patients ranged between 50 and 100 (vs 10-20 in control wells). Although some of the samples from individuals with benign disease generated 50-100 spots, the number of spots in the control wells was also high.

In the case of “ILLWQPIPV (PAP with Ala to Leu change at position 115) [PAP 135]”, the “binding to HLA-A2” value (HLA-A2) is given as “strong binding”.

For “MSLMTNLAALFPPEG (PAP with A-L mutation at position 3 of peptide) [PAP-114-128 analogue peptide]”, the “number of spots generated by splenocytes from immunised animals” value (splenocytes [1]) was 590 spots, the “fold higher IFNγ response vs PAP-114-128 immunisation” value (splenocytes [1]; C57Bl/6, FIG. 9A) was 2 fold and the “immune response on the basis of the IFNγ response, compared to immunisation with PAP-114-128” value (splenocytes [1]; C57Bl/6 mice, discussion) was “significantly more potent”. The “IFNγ response of splenocytes pulsed with varying peptide concentrations vs native peptide group” value (splenocytes [1]; peptide concentrations of 1, 0.1, 0.01 and 0.001 mg/ml, p<0.05, FIG. 9B) was “significantly higher”, the “number of spots, MC38 cells as stimulators” value (TRAMP-C1 cells; 1×10^5 MC38 cells (do not express PAP)) was 100 spots and the “number of spots, splenocytes co-cultured with TRAMP-C1 cells” value (TRAMP-C1 cells; 1×10^6 splenocytes, 1×10^5 TRAMP-C1 cells (naturally express PAP)) was 650 spots. For the same substance, the “lysis of TRAMP-C1 cells by T cells generated in C57Bl/6 mice” value (TRAMP-C1 cells; discussion) was “able to lyse TRAMP-C1 cells”, the “IFNγ response with TRAMP-C1 vs MC38 cells” value (TRAMP-C1 cells; unpaired t-test, p<0.05) was “Significantly higher” and the “immune response on the basis of the IFNγ response, compared to immunisation with PAP-114-128” value (splenocytes [2]; discussion) was “significantly more potent”.

With “PAP-114-128: immunogenic class II PAP epitope that incorporates class I PAP-115-123 (MSAMTNLAALFPPEG; UniProt P15309 114-128, looked up, fragment)” the “number of spots generated by splenocytes from immunised animals” value (splenocytes [1]) was 280 spots and the “IFNγ response of splenocytes co-cultured with class II epitope” value (splenocytes [2]; 10 μg class II peptide) was “No significant IFNγ response”.

With “SLMTNLAAL (PAP with A-L mutation at position 2 of peptide) [PAP-115-123 analogue peptide, 9-mer PAP analogue with alanine changed to leucine]” the “number of spots, other 6 patients with prostate cancer” value ([3]; 1 μg peptide, 4×10^4 cells per well, 10-20 in controls) was 50-100 spots, the “number of spots, some PBMCs from individuals with benign disease” value ([3]; 1 μg peptide, spots in control wells also high) was 50-100 spots and the “peptide-specific IFNγ response in samples from individuals with benign disease” value ([3]; 1 μg peptide, listed as PAP115-123 analogue peptide) was “not responsive”. The “peptide-specific IFNγ response in samples from individuals with benign disease” value ([3]; 1 μg peptide, listed as PAP-115-123 analogue) was “no PAP-115-123 analogue specific IFNγ response”, the “responsiveness of PBMCs from patients with prostate cancer” value ([3]; discussion) was “greater” and the “PBMC samples from patients with prostate cancer with peptide-specific IFNγ response” value ([3]; of 10 samples, 7 days re-stimulation with the 15-mer, then 1 μg peptide, 48 hours, vs no peptide) was 7. The “number of IFNγ spots, highest patient” value ([3]; one prostate cancer patient, 1 μg peptide, 4×10^4 cells per well, 48 hours) was 180 spots and the “IFNγ response of splenocytes co-cultured with class I PAP115-123 and PAP-115-123 analogue peptide epitopes” value (splenocytes [2]; 1 μg class I peptide, vs native peptide group, p<0.05) was “significantly higher”.
